Data from US7371731B2, “Methods for using glucose pentasulfate for treating amyloid associated with type II diabetes” (priority 1998, dated 2008).
Entries after “also recorded” stand apart in the source; their conditions may differ. Read-outs that look alike come from different tables or passages of the source.

How the values were obtained:
Aβ-heparin binding = molecular target: T1, Aβ-heparin binding (Homo sapiens, UniProt P05067); test: Solid phase binding immunoassay, binding of Aβ to substrate bound heparin; details: 5 μM Aβ 1-40
T1 construct: 25 μM of Aβ (1-40)(Bachem Inc., Torrance, Calif., USA; Lot #WM365); purchased Bachem Inc., Torrance, Calif., USA
T1 sequence (P05067 672-711 limits assumed): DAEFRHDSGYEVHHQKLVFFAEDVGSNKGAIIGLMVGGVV
Procedure: (§1) 12 μg of heparin (molecular weight=5,000; obtained from the Sigma Chemical Company, St. Louis, Mo., USA) or heparan sulfate (molecular weight=˜70,000; obtained from Seikagaku America, Rockville, Md.) in 80 μl of Tris-buffered saline containing 100 mM Tris-HCl, 50 mM NaCl, 3 mM NaN3, pH 9.0 (TBS) was allowed to bind overnight at 4° C. to microtiter wells (Nunc plates, Maxisorb). The next day all of the microtiter wells were blocked for 2 hours by incubating with 300 μl of TBS with 0.05% Tween-20 (TTBS) plus 1% bovine serum albumin (BSA) (obtained from the Sigma Chemical Company, St. Louis, Mo., USA). Then, 100 μl of 5 μM Aβ 1-40 (Bachem Inc., Torrance, Calif., USA; Lot #WM365) in TTBS containing 0.05% albumin in the presence or absence of glucose pentasulfate at concentrations of 2.5 mM, 0.83 mM, 0.28 mM and 0.093 mM were placed in wells (in triplicate) containing substrate bound perlecan or blank, and allowed to bind overnight at 4° C. The next day, the wells were rinsed once with TTBS, and then probed for 45 minutes with 100 μl of anti-6E10 (Senetek, Maryland Heights, Mo.)(which recognizes Aβ 1-17) diluted 1:1000 with TTBS. This was followed by rinsing once with TTBS and probed for 45 minutes with biotinylated goat-anti mouse (diluted 1:1000) containing streptavidin-peroxidase or anti-biotin-peroxidase (1:500 dilution of a 2 μg/ml solution) (Sigma Chemical Co., St. Louis, Mo.) in TTBS containing 0.1% BSA. The wells were then rinsed 3 times with TTBS and 100 μl of a substrate solution (OPD-Sigma Fast from Sigma Chemical Co., St. Louis, Mo.) was added to each well and allowed to develop for 5 minutes or until a significant color change was observed. The reaction was stopped with 50 μl of 4N H2SO4 and read on a Model 450 microplate reader (Biorad, Hercules, Calif., USA) at 490 nm.

[1] = molecular target: T2, Aβ-heparan sulfate binding (Homo sapiens, UniProt P05067); test: Solid phase binding immunoassay, Aβ-heparan sulfate binding; details: 2.5 to 0.093 mM; data not shown
T2 construct: 25 μM of Aβ (1-40)(Bachem Inc., Torrance, Calif., USA; Lot #WM365); purchased Bachem Inc., Torrance, Calif., USA
T2 sequence (P05067 672-711 limits assumed): as above
Procedure: as §1, with “This was followed by rinsing once with TTBS and probed for 45 minutes with biotinylated goat-anti mouse (diluted 1:1000) containing streptavidin-peroxidase or anti-biotin-peroxidase (1:500 dilution of a 2 μg/ml solution) (Sigma Chemical Co., St. Louis, Mo.) in TTBS containing 0.1% BSA. The wells were then rinsed 3 times with TTBS and 100 μl of a substrate solution (OPD-Sigma Fast from Sigma Chemical Co., St. Louis, Mo.) was added to each well and allowed to develop for 5 minutes or until a significant color change was observed.” left out

[2] = molecular target: T3, human islet amyloid polypeptide (Homo sapiens, UniProt P10997); test: Thioflavin T fluorometry assay of islet amyloid polypeptide (amylin) fibrils; assay type: biochemical; details: 1.25 mM
T3 construct: consists of a 37 amino acid protein known as islet amyloid polypeptide or amylin; purchased Bachem Inc, Torrance, Calif., USA
T3 sequence (P10997 34-70 limits assumed): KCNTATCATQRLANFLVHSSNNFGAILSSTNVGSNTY
Procedure: (§2) To assess the effects of each compound on Aβ (1-40) fibril formation, 50 μl aliquots were taken from each tube for analysis at 1 hr, 1 day, 3 days, and 1 week. For each determination described above, following each incubation period, 50 μl of Aβ+/−test compounds were added to 1.2 ml of 100 μM Thioflavin T (Sigma Chemical Co., St. Louis, Mo.) in 50 mM NaPO4 (pH 6.0). […] Fluorescence emission at 482 nm was measured on a Turner instrument-model 450 fluorometer at an excitation wavelength of 450 nm. For each determination, the fluorometer was calibrated by zeroing in the presence of the Thioflavin T reagent alone, and by seting the 50 ng/ml riboflavin (Sigma Chemical Co., St. Louis, Mo.) in the Thioflavin T reagent to 1800 fluorescence units. All fluorescence determinations were based on these references and any fluorescence given off by any of the compounds in the presence of the Thioflavin T reagent was always subtracted from all pertinent readings.
For this study, the method of Thioflavin T fluorometry as described above was used. Briefly, 25 μM of human islet amyloid polypeptide (Bachem Inc, Torrance, Calif., USA, Lot # WL934) was incubated in microcentrifuge tubes at 37° C. for 1 week (in triplicate), either alone, or in the presence of 1.25 mM glucose pentasulfate (PTI-48579; molecular weight=771) or mannose pentasulfate (PTI-07499; molecular weight=771). To assess the effects of glucose pentasulfate and mannose pentasulfate on islet amyloid polypeptide fibrillogenesis, 50 μl aliquots were taken from each tube for analysis at 1 hr, 1 day, 2 days, 3 days, 4 days and 1 week. For each determination described above, following each incubation period, 50 μl aliquots of islet amyloid polypeptide+/−glucose pentasulfate or mannose pentasulfate were added to 1.2 ml of 100 μM Thioflavin T (Sigma Chemical Co., St. Louis, Mo.) in 50 mM NaPO4 (pH 6.0) for fluorometry readings as described in section 4.1.

[3] = molecular target: T4, pre-formed Aβ (1-40) amyloid fibrils (Homo sapiens, UniProt P05067); test: Thioflavin T fluorometry assay of dissolution of pre-formed Aβ (1-40) amyloid fibrils; assay type: biochemical; details: 25 μM fibrillized Aβ, 4 day incubation
T4 construct: 25 μM of Aβ (1-40)(Bachem Inc., Torrance, Calif., USA; Lot #WM365); purchased Bachem Inc., Torrance, Calif., USA
T4 sequence (P05067 672-711 limits assumed): as the sequence (P05067 672-711 limits assumed) above
Procedure: as §2
For this study, 1 mg of Aβ (1-40) (Bachem Inc., Torrance, Calif., USA; Lot #WM365) was dissolved in 1.0 ml of double distilled water (1 mg/ml solution) and then incubated at 37° C. for 1 week. 25 μM of fibrillized Aβ was then incubated at 37° C. in the presence or absence of glucose pentasulfate at concentrations of 1.25 mM, 0.63 mM, 0.31 mM and 0.16 mM containing 150 mM Tris HCl, 10 mM NaCl, pH 7.0. Following a 4 day incubation, 50 μl aliquots were added to 1.2 ml of 100 μM Thioflavin T (Sigma Chemical Co., St. Louis, Mo.) in 50 mM NaPO4 (pH 6.0) for fluorometry readings as described in section 4.1.

Aβ (1-40) = molecular target: T5, Aβ (1-40) (Homo sapiens, UniProt P05067); test: Thioflavin T fluorometry assay of Aβ (1-40) amyloid fibril formation; assay type: biochemical; details: for effect on Aβ (1-40) amyloid fibril formation (in words): 1.25 mM compound (1:50 M ratio), 1-week incubation
T5 construct: 25 μM of Aβ (1-40)(Bachem Inc., Torrance, Calif., USA; Lot #WM365); purchased Bachem Inc., Torrance, Calif., USA
T5 sequence (P05067 672-711 limits assumed): as the sequence (P05067 672-711 limits assumed) above
Source text: A previously described method of measuring amyloid fibril formation utilizing Thioflavin T fluorometry (H Naiki et al, Lab. Invest. 65:104-110, 1991; H Levine III, Protein Sci. 2:404-410, 1993; H Levine III, Amyloid: Int. J. Exp. Clin. Invest. 2:1-6, 1995; H Naiki and K. Nakakuki, Lab. Invest. 74:374-383, 1996) was employed initially to identify potential therapeutic compounds capable of inhibiting Aβ amyloid fibril formation. Using this sensitive assay, any decreases or increases in fluorescence were previously shown to correlate with a decrease or increase in the amount of amyloid fibrils (H Naiki et al, Lab. Invest. 65:104-110, 1991; H Levine III, Protein Sci. 2:404-410, 1993; H Levine III, Amyloid: Int. J. Exp. Clin. Invest. 2:1-6, 1995; H Naiki and K. Nakakuki, Lab. Invest. 74:374-383, 1996), allowing one to determine the identification and extent of potential inhibitors and/or enhancers of amyloid fibril formation.
In an initial set of studies, the effects of various compounds on Aβ (1-40) fibrillogenesis was assessed. For these initial studies, 25 μM of Aβ (1-40)(Bachem Inc., Torrance, Calif., USA; Lot #WM365) was incubated in microcentrifuge tubes at 37° C. for 1 week (in triplicate), either alone, or in the presence of 1.25 mM (ie. 1:50 M ratio of Aβ:test compound) of various commercially available compounds (described below) in 150 mM Tris HCl, 10 mM NaCl, pH 7.0 (TBS). The compounds tested included glucose pentasulfate (PTI-48579, potassium salt; molecular weight=771), mannose pentasulfate (PTI-07499, potassium salt; molecular weight=771), methyl alpha-D-glucopyranoside 2,3,4,6-tetrasulfate (PTI-20049, potassium salt; molecular weight=667), methyl alpha-D-mannopyranoside 2,3,4,6-tetrasulfate (PTI-20814, potassium salt; molecular weight=667), sucrose heptasulfate (PTI-70936, potassium salt; molecular weight=1169), sucrose hexasulfate (PTI-70946, potassium salt; molecular weight=1052), and sucrose octasulfate (PTI-70011, potassium salt; molecular weight=1288).
as §2
For all fibrillogenesis studies utilizing Thioflavin T fluorometry, comparisons of Aβ in the presence or absence of test compounds were based on paired Student's t tests with data shown as mean+/−standard deviation. Significance was reported at the 95% (p<0.05), 99% (p<0.01) and 99.9% (p<0.001) confidence levels.
In this study, the dose-dependent effects of glucose pentasulfate (PTI-48579) on Aβ (1-40) fibrillogenesis was determined using the Thioflavin T fluorometry assay. 25 μM of Aβ (1-40) (Bachem Inc., Torrance, Calif., USA; Lot #WM365) was incubated in microcentrifuge tubes at 37° C. for 1 week (in triplicate), either alone, or in the presence of 1.25 mM (ie. 1:50 M ratio of Aβ:PTI-48579), 0.41 mM, 0.138 mM and 0.046 mM of glucose pentasulfate in 150 mM Tris HCl, 10 mM NaCl, pH 7.0 (TBS). 50 μl aliquots were taken from each tube for analysis at 1 hr, 1 day, 3 days, and 1 week using Thioflavin T fluorometry as described in section 4.1. […]

Molecule: O=C[C@H](OS(=O)(=O)O)[C@@H](OS(=O)(=O)O)[C@H](OS(=O)(=O)O)[C@@H](COS(=O)(=O)O)OS(=O)(=O)O [PTI-48579, glucose pentasulfate]
- inhibition at 93 µM (Aβ-heparin binding; 0.093 mM): 45%
- inhibition at 280 µM (Aβ-heparin binding; 0.28 mM): 74%
- inhibition at 830 µM (Aβ-heparin binding; 0.83 mM): 92%
- inhibition at 2500 µM (Aβ-heparin binding; 2.5 mM): 78%
- inhibition of Aβ-heparan sulfate binding (in words) [1]: significant dose-dependent inhibition
- dissolution of pre-formed amylin fibrils ([2]; 25 μM islet amyloid polypeptide, 1 week): 57%
- effect on islet amyloid polypeptide fibrillogenesis at earlier time points (in words) ([2]; 1 hour, 1 day and 2 days): initial increase
- dissolution of pre-formed Aβ amyloid fibrils ([3]; 0.16 mM): 23%
- dissolution of pre-formed Aβ amyloid fibrils ([3]; 0.31 mM): 31%
- dissolution of pre-formed Aβ amyloid fibrils ([3]; 0.63 mM): 47%
- dissolution of pre-formed Aβ amyloid fibrils ([3]; 1.25 mM): 60%
- effect on Aβ (1-40) amyloid fibril formation (in words) (Aβ (1-40); Example 1, 25 μM Aβ (1-40)): inhibited
- inhibition at 1250 µM (Aβ (1-40); Example 1, 25 μM Aβ (1-40), 1.25 mM compound, 37° C., 1 week, read-out: inhibition of Aβ (1-40) amyloid fibril formation): 80%
- inhibition of Aβ amyloid fibril formation (in words) (Aβ (1-40); Example 1, 1.25 mM compound, 3 days): Significant inhibition
- inhibition of Aβ fibril formation (in words) (Aβ (1-40); Example 2, 0.046 mM, 3 days): did not significantly inhibit
- inhibition of Aβ fibril formation (in words) (Aβ (1-40); Example 2, 0.138 mM, 3 days): did not significantly inhibit
- inhibition at 410 µM (Aβ (1-40); Example 2, 0.41 mM, 1 week, read-out: inhibition of Aβ (1-40) fibrillogenesis): 47%
- inhibition of Aβ fibril formation (in words) (Aβ (1-40); Example 2, 0.41 mM, 3 days): did not significantly inhibit
- inhibition at 1250 µM (Aβ (1-40); Example 2, 1.25 mM, 1 week, read-out: inhibition of Aβ (1-40) fibrillogenesis): 72%
- inhibition at 1250 µM (Aβ (1-40); Example 2, 1.25 mM, 3 days, read-out: inhibition of Aβ fibril formation): 39%

Molecule: O=C[C@@H](OS(=O)(=O)O)[C@@H](OS(=O)(=O)O)[C@H](OS(=O)(=O)O)[C@@H](COS(=O)(=O)O)OS(=O)(=O)O [mannose pentasulfate, reference compound]
- effect on islet amyloid polypeptide fibrillogenesis (in words) ([2]; all time points (1 hr to 1 week)): significant increase
- effect on Aβ (1-40) amyloid fibril formation (in words) (Aβ (1-40); Example 1, 25 μM Aβ (1-40)): ineffective inhibitors; also recorded: did not inhibit

Molecule: CO[C@H]1O[C@H](COS(=O)(=O)O)[C@@H](OS(=O)(=O)O)[C@H](OS(=O)(=O)O)[C@H]1OS(=O)(=O)O [methyl alpha-D-glucopyranoside 2,3,4,6-tetrasulfate, reference compound]
- effect on Aβ (1-40) amyloid fibril formation (in words) (Aβ (1-40); Example 1, 25 μM Aβ (1-40)): ineffective inhibitors

Molecule: CO[C@H]1O[C@H](COS(=O)(=O)O)[C@@H](OS(=O)(=O)O)[C@H](OS(=O)(=O)O)[C@@H]1OS(=O)(=O)O [methyl alpha-D-mannopyranoside 2,3,4,6-tetrasulfate, reference compound]
- effect on Aβ (1-40) amyloid fibril formation (in words) (Aβ (1-40); Example 1, 25 μM Aβ (1-40)): ineffective inhibitors

Molecule: O=S(=O)(O)OC[C@H]1O[C@@](COS(=O)(=O)O)(O[C@H]2O[C@H](COS(=O)(=O)O)[C@@H](OS(=O)(=O)O)[C@H](OS(=O)(=O)O)[C@H]2OS(=O)(=O)O)[C@@H](OS(=O)(=O)O)[C@@H]1OS(=O)(=O)O [sucrose octasulfate, reference compound]
- effect on Aβ (1-40) amyloid fibril formation (in words) (Aβ (1-40); Example 1, 25 μM Aβ (1-40)): ineffective inhibitors

Molecule: sucrose heptasulfate [reference compound]
- effect on Aβ (1-40) amyloid fibril formation (in words) (Aβ (1-40); Example 1, 25 μM Aβ (1-40)): ineffective inhibitors

Molecule: sucrose hexasulfate [reference compound]
- effect on Aβ (1-40) amyloid fibril formation (in words) (Aβ (1-40); Example 1, 25 μM Aβ (1-40)): ineffective inhibitors
